Measured values published in ChEMBL document CHEMBL1140680 (Bioorg Med Chem Lett, 2007).
Converted amounts (≈) assume the structure as drawn.

Experiments:
Haemophilus influenzae = assay: Antibacterial activity against Heamophilus influenzae HI3542 by microbroth method; format: functional
Escherichia coli = assay: Inhibition of transcription and translation activity in Escherichia coli by luciferase reporter assay; format: functional, organism-based
Enterococcus faecalis = assay: Antibacterial activity against Enterococcus faecalis MG2 EF1 by micro-broth method; format: functional
Streptococcus pyogenes = assay: Antibacterial activity against Streptococcus pyogenes C203 SP1-1 by micro-broth method; format: functional
Staphylococcus aureus = assay: Antibacterial activity against Staphylococcus aureus UC76 SA1 by micro-broth method; format: functional
Moraxella catarrhalis = assay: Antibacterial activity against Moraxella catarrhalis BC-3531 by micro-broth method; format: functional
Streptococcus pneumoniae = assay: Antibacterial activity against Streptococcus pneumoniae SV1 SP3 by micro-broth method; format: functional

SMILES | MIC (Haemophilus influenzae) [µg/mL] | IC50 (Escherichia coli) [nM] | MIC (Enterococcus faecalis) [µg/mL] | MIC (Streptococcus pyogenes) [µg/mL] | MIC (Staphylococcus aureus) [µg/mL] | MIC (Moraxella catarrhalis) [µg/mL] | MIC (Streptococcus pneumoniae) [µg/mL]
CC(=O)NC[C@H]1CN(c2cc(F)c3c(c2)CCCc2c(-c4cc(C)n(C)n4)n[nH]c2-3)C(=O)O1 | > 64 | 4200 | 2 (≈ 4.42 µM) | 1 (≈ 2.21 µM) | 4 (≈ 8.84 µM) | 32 (≈ 70.7 µM) | 1 (≈ 2.21 µM)
NC[C@H]1CN(c2ccc3c(c2)CCCc2c(-c4ccno4)n[nH]c2-3)C(=O)O1 | > 64 | 8300 | 8 (≈ 21.9 µM) | 2 (≈ 5.47 µM) | 16 (≈ 43.8 µM) | 64 (≈ 175 µM) | 4 (≈ 10.9 µM)
CC(=O)NC[C@H]1CN(c2ccc3c(c2)CCCc2c(-c4ccncc4)n[nH]c2-3)C(=O)O1 | 4 (≈ 9.58 µM) | 1000 | 1 (≈ 2.4 µM) | 0.25 (≈ 0.599 µM) | 2 (≈ 4.79 µM) | 2 (≈ 4.79 µM) | 0.25 (≈ 0.599 µM)
CC(=O)NC[C@H]1CN(c2ccc3c(c2)CCCc2c(-c4cscn4)n[nH]c2-3)C(=O)O1 | 2 (≈ 4.72 µM) | 1100 | 0.5 (≈ 1.18 µM) | 1 (≈ 2.36 µM) | 1 (≈ 2.36 µM) | 1 (≈ 2.36 µM) | 0.125 (≈ 0.295 µM)
O=C(NC[C@H]1CN(c2ccc3c(c2)CCCc2c(-c4ccno4)n[nH]c2-3)C(=O)O1)c1cccnc1 | > 64 | 2800 | 1 (≈ 2.13 µM) | 1 (≈ 2.13 µM) | 2 (≈ 4.25 µM) | 32 (≈ 68 µM) | 1 (≈ 2.13 µM)
Cc1cc(C(=O)NC[C@H]2CN(c3cc(F)c4c(c3)CCCc3c(-c5cc(C)n(C)n5)n[nH]c3-4)C(=O)O2)nn1C | > 64 | > 25000 | > 64 | > 64 | > 64 | > 64 | > 64
CC(=O)NC[C@H]1CN(c2ccc3c(c2)CCCc2c(-c4snnc4C)n[nH]c2-3)C(=O)O1 | 8 (≈ 18.2 µM) | 700 | 0.5 (≈ 1.14 µM) | 0.125 (≈ 0.285 µM) | 0.5 (≈ 1.14 µM) | 2 (≈ 4.56 µM) | 0.25 (≈ 0.57 µM)
CC(=O)NC[C@H]1CN(c2ccc3c(c2)CCCc2c(C(F)(F)F)n[nH]c2-3)C(=O)O1 | 4 (≈ 9.79 µM) | 1300 | 1 (≈ 2.45 µM) | 1 (≈ 2.45 µM) | 1 (≈ 2.45 µM) | 1 (≈ 2.45 µM) | 0.25 (≈ 0.612 µM)
CC(=O)NC[C@H]1CN(c2ccc3c(c2)CCCc2c(-c4nc5ccccc5s4)n[nH]c2-3)C(=O)O1 | > 64 |  | > 64 | > 64 | > 64 | > 64 | > 64
CC(=O)NC[C@H]1CN(c2ccc3c(c2)CCCc2c(-c4cc(C)on4)n[nH]c2-3)C(=O)O1 | 4 (≈ 9.49 µM) | 900 | 0.5 (≈ 1.19 µM) | 0.25 (≈ 0.593 µM) | 0.5 (≈ 1.19 µM) | 2 (≈ 4.75 µM) | 0.25 (≈ 0.593 µM)
Cc1cc(C(=O)NC[C@H]2CN(c3cc(F)c4c(c3)CCCc3c(-c5cc(C)on5)n[nH]c3-4)C(=O)O2)no1 | > 64 | 11500 | > 64 | > 64 | > 64 | > 64 | > 64
CC(=O)NC[C@H]1CN(c2ccc3c(c2)CCCc2c(-c4cccnc4)n[nH]c2-3)C(=O)O1 | 4 (≈ 9.58 µM) | 1000 | 0.5 (≈ 1.2 µM) | 0.25 (≈ 0.599 µM) | 1 (≈ 2.4 µM) | 2 (≈ 4.79 µM) | 0.125 (≈ 0.299 µM)
CCc1n[nH]c2c1CCCc1cc(N3C[C@H](CNC(C)=O)OC3=O)ccc1-2 | 4 (≈ 10.9 µM) | 1100 | 0.25 (≈ 0.679 µM) | 0.125 (≈ 0.339 µM) | 0.5 (≈ 1.36 µM) | 1 (≈ 2.71 µM) | 0.125 (≈ 0.339 µM)
CC(=O)NC[C@H]1CN(c2ccc3c(c2)CCCc2c(C(C)C)n[nH]c2-3)C(=O)O1 | 16 (≈ 41.8 µM) | 4300 | 2 (≈ 5.23 µM) | 1 (≈ 2.61 µM) | 2 (≈ 5.23 µM) | 8 (≈ 20.9 µM) | 0.5 (≈ 1.31 µM)
Cc1cc(C(=O)NC[C@H]2CN(c3ccc4c(c3)CCCc3c(-c5cc(C)on5)n[nH]c3-4)C(=O)O2)no1 | > 64 |  | > 64 | 2 (≈ 4.09 µM) | > 64 | > 64 | 1 (≈ 2.05 µM)
CC(=O)NC[C@H]1CN(c2cc(F)c3c(c2)CCCc2c(-c4ccno4)n[nH]c2-3)C(=O)O1 | > 64 | 1400 | 0.5 (≈ 1.18 µM) | 0.25 (≈ 0.588 µM) | 1 (≈ 2.35 µM) | 4 (≈ 9.4 µM) | 0.5 (≈ 1.18 µM)
CC(=O)NC[C@H]1CN(c2cc(F)c3c(c2)CCCc2c(-c4cc(C)on4)n[nH]c2-3)C(=O)O1 | > 64 | 2100 | 0.5 (≈ 1.14 µM) | 0.5 (≈ 1.14 µM) | 1 (≈ 2.28 µM) | 4 (≈ 9.1 µM) | 0.5 (≈ 1.14 µM)
CC(=O)NC[C@H]1CN(c2ccc3c(c2)CCCc2c(-c4ccc(F)cc4)n[nH]c2-3)C(=O)O1 | 8 (≈ 18.4 µM) | 1500 | 0.5 (≈ 1.15 µM) | 1 (≈ 2.3 µM) | 0.5 (≈ 1.15 µM) | 1 (≈ 2.3 µM) | 0.25 (≈ 0.575 µM)
CC(=O)NC[C@H]1CN(c2ccc3c(c2)CCCc2c(-c4cc(C)n(C)n4)n[nH]c2-3)C(=O)O1 | 8 (≈ 18.4 µM) | 1300 | 0.5 (≈ 1.15 µM) | 0.25 (≈ 0.575 µM) | 0.5 (≈ 1.15 µM) | 4 (≈ 9.21 µM) | 0.25 (≈ 0.575 µM)

SMILES | MIC (Haemophilus influenzae) [µg/mL] | IC50 (Escherichia coli) [nM] | MIC (Enterococcus faecalis) [µg/mL] | MIC (Streptococcus pyogenes) [µg/mL] | MIC (Staphylococcus aureus) [µg/mL] | MIC (Moraxella catarrhalis) [µg/mL] | MIC (Streptococcus pneumoniae) [µg/mL]
CCOC(=O)NC[C@H]1CN(c2ccc3c(c2)CCCc2c(-c4ccno4)n[nH]c2-3)C(=O)O1 | > 64 | 1800 | 0.5 (≈ 1.14 µM) | 0.5 (≈ 1.14 µM) | 1 (≈ 2.29 µM) | 4 (≈ 9.14 µM) | 0.5 (≈ 1.14 µM)
CC(=O)NC[C@H]1CN(c2ccc3c(c2)CCCc2c(-c4nnc(-c5ccccc5)o4)n[nH]c2-3)C(=O)O1 | 16 (≈ 33 µM) |  | > 64 | 0.25 (≈ 0.516 µM) | > 64 | > 64 | 0.25 (≈ 0.516 µM)
CC(=O)NC[C@H]1CN(c2ccc3c(c2)CCCc2c(-c4ccc(O)cc4)n[nH]c2-3)C(=O)O1 | 4 (≈ 9.25 µM) | 1700 | 0.5 (≈ 1.16 µM) | 2 (≈ 4.62 µM) | 1 (≈ 2.31 µM) | 2 (≈ 4.62 µM) | 0.25 (≈ 0.578 µM)
CC(=O)NC[C@H]1CN(c2ccc3c(c2)CCCc2c(-c4ccc(C#N)cc4)n[nH]c2-3)C(=O)O1 | 4 (≈ 9.06 µM) | 1400 | 0.25 (≈ 0.566 µM) | 0.125 (≈ 0.283 µM) | 0.5 (≈ 1.13 µM) | 1 (≈ 2.27 µM) | 0.25 (≈ 0.566 µM)
O=C(NC[C@H]1CN(c2ccc3c(c2)CCCc2c(-c4cccnc4)n[nH]c2-3)C(=O)O1)c1cccnc1 | > 64 | 3700 | 4 (≈ 8.32 µM) | 2 (≈ 4.16 µM) | 8 (≈ 16.6 µM) | 16 (≈ 33.3 µM) | 1 (≈ 2.08 µM)
CC(=O)NC[C@H]1CN(c2ccc(N3CCOCC3)c(F)c2)C(=O)O1 [LINEZOLID] |  |  |  | 2 (≈ 5.93 µM) |  |  | 
O=C(NC[C@H]1CN(c2ccc3c(c2)CCCc2c(-c4ccoc4)n[nH]c2-3)C(=O)O1)c1ccoc1 | 8 (≈ 17.4 µM) | 3500 | 1 (≈ 2.18 µM) | 1 (≈ 2.18 µM) | 2 (≈ 4.36 µM) | 4 (≈ 8.72 µM) | 1 (≈ 2.18 µM)
CC(=O)NC[C@H]1CN(c2ccc3c(c2)CCCc2c(-c4csc(-c5ccccc5)n4)n[nH]c2-3)C(=O)O1 | > 64 | > 11400 | 8 (≈ 16 µM) | 1 (≈ 2 µM) | 8 (≈ 16 µM) | > 64 | 0.5 (≈ 1 µM)
O=C(NC[C@H]1CN(c2ccc3c(c2)CCCc2c(-c4ccno4)n[nH]c2-3)C(=O)O1)C(F)F | 4 (≈ 9.02 µM) | 210 | 0.5 (≈ 1.13 µM) | 0.125 (≈ 0.282 µM) | 0.5 (≈ 1.13 µM) | 1 (≈ 2.26 µM) | 0.25 (≈ 0.564 µM)
CCCc1n[nH]c2c1CCCc1cc(N3C[C@H](CNC(C)=O)OC3=O)ccc1-2 | 16 (≈ 41.8 µM) | 3100 | 1 (≈ 2.61 µM) | 0.5 (≈ 1.31 µM) | 2 (≈ 5.23 µM) | 4 (≈ 10.5 µM) | 0.5 (≈ 1.31 µM)
CC(C)C(=O)NC[C@H]1CN(c2ccc3c(c2)CCCc2c(C(C)C)n[nH]c2-3)C(=O)O1 | 64 (≈ 156 µM) | 7900 | 8 (≈ 19.5 µM) | 4 (≈ 9.74 µM) | 8 (≈ 19.5 µM) | 32 (≈ 78 µM) | 4 (≈ 9.74 µM)
CC(=O)NC[C@H]1CN(c2ccc3c(c2)CCCc2c(C)n[nH]c2-3)C(=O)O1 | 4 (≈ 11.3 µM) | 1200 | 1 (≈ 2.82 µM) | 0.5 (≈ 1.41 µM) | 1 (≈ 2.82 µM) | 4 (≈ 11.3 µM) | 0.5 (≈ 1.41 µM)
CC(=O)NC[C@H]1CN(c2ccc3c(c2)CCCc2c(-c4ccoc4)n[nH]c2-3)C(=O)O1 | 4 (≈ 9.84 µM) | 700 | 0.25 (≈ 0.615 µM) | 0.125 (≈ 0.308 µM) | 0.5 (≈ 1.23 µM) | 1 (≈ 2.46 µM) | 0.25 (≈ 0.615 µM)
O=C(NC[C@H]1CN(c2ccc3c(c2)CCCc2c(-c4cc5ccccc5o4)n[nH]c2-3)C(=O)O1)c1cc2ccccc2o1 | > 64 | > 25000 | 32 (≈ 57.3 µM) | 4 (≈ 7.16 µM) | 32 (≈ 57.3 µM) | > 64 | 8 (≈ 14.3 µM)
CCCC(=O)NC[C@H]1CN(c2ccc3c(c2)CCCc2c(CCC)n[nH]c2-3)C(=O)O1 | > 64 | 5600 | 2 (≈ 4.87 µM) | 1 (≈ 2.44 µM) | 2 (≈ 4.87 µM) | 8 (≈ 19.5 µM) | 1 (≈ 2.44 µM)
O=C(NC[C@H]1CN(c2ccc3c(c2)CCCc2c(-c4ccno4)n[nH]c2-3)C(=O)O1)c1ccno1 | 32 (≈ 69.5 µM) | 16800 | 1 (≈ 2.17 µM) | 0.5 (≈ 1.09 µM) | 1 (≈ 2.17 µM) | 4 (≈ 8.69 µM) | 0.5 (≈ 1.09 µM)
CC(=O)NC[C@H]1CN(c2ccc3c(c2)CCCc2c(-c4ccccc4)n[nH]c2-3)C(=O)O1 | 8 (≈ 19.2 µM) | 2000 | 0.5 (≈ 1.2 µM) | 0.5 (≈ 1.2 µM) | 0.5 (≈ 1.2 µM) | 2 (≈ 4.8 µM) | 0.5 (≈ 1.2 µM)
CC(=O)NC[C@H]1CN(c2ccc3c(c2)CCCCC3=O)C(=O)O1 |  |  | 2 (≈ 6.32 µM) | 0.5 (≈ 1.58 µM) | 1 (≈ 3.16 µM) |  | 0.5 (≈ 1.58 µM)
CC(=O)NC[C@H]1CN(c2ccc3c(c2)CCCc2cn[nH]c2-3)C(=O)O1 | 2 (≈ 5.88 µM) |  | 0.25 (≈ 0.734 µM) | 0.125 (≈ 0.367 µM) | 0.5 (≈ 1.47 µM) | 2 (≈ 5.88 µM) | 0.25 (≈ 0.734 µM)
